{"source": "patent US10647713B2", "about": "(Nimbus Lakshmi, Inc., priority 2016, dated 2020)"}
{"target": "human TYK2 (JH2domain-pseudokinase) (Homo sapiens (Human), UniProt P29597)", "sequence (P29597 556-888)": "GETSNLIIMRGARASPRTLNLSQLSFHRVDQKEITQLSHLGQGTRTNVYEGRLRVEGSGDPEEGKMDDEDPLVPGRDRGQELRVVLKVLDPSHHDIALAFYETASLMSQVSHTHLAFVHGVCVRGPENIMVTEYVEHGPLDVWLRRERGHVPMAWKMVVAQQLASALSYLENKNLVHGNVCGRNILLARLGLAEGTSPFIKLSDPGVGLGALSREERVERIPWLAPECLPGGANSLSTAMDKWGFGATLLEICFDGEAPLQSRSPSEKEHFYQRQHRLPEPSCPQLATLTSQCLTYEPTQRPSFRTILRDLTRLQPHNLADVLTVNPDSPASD", "assay": "TYK2 JH2 Domain Binding Assay (KINOMEscan, DiscoveRx)", "settings": "11-point dilution, duplicate", "in_short": "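TYK2 JH2 (G556–D888)–NFkB DBD fusion, DNA-tagged, from HEK293 extracts (<0.1 nM) competed against immobilised biotinylated ligand for 1 h at room temperature, 0.9% DMSO. Bead-retained kinase quantified by qPCR; Kd from 11-point 3-fold series (top 30,000 nM, duplicate), Hill fit with slope −1.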", "units": {"Kd": "nM"}}
{"compound": "Cc1nc2c(Nc3ccc(-c4ccn(C)n4)cc3S(C)(=O)=O)cc(NC(=O)C3CC3(F)F)nc2[nH]1", "note": "(stereo not shown) [I-377, 2,2-difluoro-N-(2-methyl-7-((4-(1-methyl-1H-pyrazol-3-yl)-2-(methylsulfonyl)phenyl)amino)-3H-imidazo[4,5-b]pyridin-5-yl)cyclopropane-1-carboxamide]", "Kd": "0.5 to 1"}
{"compound": "Cc1nc2c(Nc3ccc(-c4cn(C)cn4)cc3S(C)(=O)=O)cc(NC(=O)C3CC3(F)F)nc2[nH]1", "note": "(stereo not shown) [I-378, N-(7-((4-(1l2-imidazol-4-yl)-2-(methylsulfonyl)phenyl)amino)-2-methyl-3H-imidazo[4,5-b]pyridin-5-yl)-2,2-difluorocyclopropane-1-carboxamide]", "Kd": "0.5 to 1"}
{"compound": "Cn1cncc1-c1ccc(Nc2cc(NC(=O)C3CC3(F)F)nc3[nH]c(C(F)F)nc23)c(S(C)(=O)=O)c1", "note": "(stereo not shown) [I-379, N-(2-(difluoromethyl)-7-((4-(1-methyl-1H-imidazol-5-yl)-2-(methylsulfonyl)phenyl)amino)-3H-imidazo[4,5-b]pyridin-5-yl)-2,2-difluorocyclopropane-1-carboxamide]", "Kd": "0.1 to 0.5"}
{"compound": "CN(c1cc(-c2cncn2C)ccc1Nc1cc(NC(=O)C2CC2(F)F)nc2[nH]c(C(F)F)nc12)S(C)(=O)=O", "note": "(stereo not shown) [I-380, N-(2-(difluoromethyl)-7-((4-(1-methyl-1H-imidazol-5-yl)-2-(N-methylmethylsulfonamido)phenyl)amino)-3H-imidazo[4,5-b]pyridin-5-yl)-2,2-difluorocyclopropane-1-carboxamide]", "Kd": "0.5 to 1"}
{"compound": "Cn1cnc(-c2ccc(Nc3cc(NC(=O)C4CC4(F)F)nc4[nH]c(C(F)F)nc34)c(S(C)(=O)=O)c2)c1", "note": "(stereo not shown) [I-381, N-(2-(difluoromethyl)-7-((4-(1-methyl-1H-imidazol-4-yl)-2-(methylsulfonyl)phenyl)amino)-3H-imidazo[4,5-b]pyridin-5-yl)-2,2-difluorocyclopropane-1-carboxamide]", "Kd": "1 to 10"}
{"compound": "Cc1nc2c(Nc3ccc(-c4cncn4C)cc3S(C)(=O)=O)cc(NC(=O)C3CC3(F)F)nc2[nH]1", "note": "(stereo not shown) [I-382, 2,2-difluoro-N-(2-methyl-7-((4-(1-methyl-1H-imidazol-5-yl)-2-(methylsulfonyl)phenyl)amino)-3H-imidazo[4,5-b]pyridin-5-yl)cyclopropane-1-carboxamide]", "Kd": "0.1 to 0.5"}
{"compound": "COc1cc(Nc2ccc(-c3ccn(C)n3)cc2S(C)(=O)=O)c2nc(C)[nH]c2n1", "note": "[I-383, 5-methoxy-2-methyl-N-(4-(1-methyl-1H-pyrazol-3-yl)-2-(methylsulfonyl)phenyl)-3H-imidazo[4,5-b]pyridin-7-amine]", "Kd": "> 10"}
{"compound": "Cc1nc2c(Nc3ccc(-c4cncn4C)cc3N(C)S(C)(=O)=O)cc(NC(=O)C3CC3(F)F)nc2[nH]1", "note": "(stereo not shown) [I-384, 2,2-difluoro-N-(2-methyl-7-((4-(1-methyl-1H-imidazol-5-yl)-2-(N-methylmethylsulfonamido)phenyl)amino)-3H-imidazo[4,5-b]pyridin-5-yl)cyclopropane-1-carboxamide]", "Kd": "0.5 to 1"}
{"compound": "CN(c1cc(-c2cnn(C)c2)ccc1Nc1cc(NC(=O)C2CC2(F)F)nc2[nH]c(C(F)F)nc12)S(C)(=O)=O", "note": "(stereo not shown) [I-385, N-(2-(difluoromethyl)-7-((4-(1-methyl-1H-pyrazol-4-yl)-2-(N-methylmethylsulfonamido)phenyl)amino)-3H-imidazo[4,5-b]pyridin-5-yl)-2,2-difluorocyclopropane-1-carboxamide]", "Kd": "0.5 to 1"}
{"compound": "Cn1ccc(-c2ccc(Nc3cc(NC(=O)C4CC4(F)F)nc4[nH]c(C(F)F)nc34)c(S(C)(=O)=O)c2)n1", "note": "(stereo not shown) [I-386, N-(2-(difluoromethyl)-7-((4-(1-methyl-1H-pyrazol-3-yl)-2-(methylsulfonyl)phenyl)amino)-3H-imidazo[4,5-b]pyridin-5-yl)-2,2-difluorocyclopropane-1-carboxamide]", "Kd": "0.5 to 1"}
{"compound": "Cc1nc2c(Nc3ccc(C4CCCCO4)cc3S(C)(=O)=O)cc(NC(=O)C3CC3)nc2[nH]1", "note": "(stereo not shown) [I-387, N-(2-methyl-7-((2-(methylsulfonyl)-4-(tetrahydro-2H-pyran-2-yl)phenyl)amino)-3H-imidazo[4,5-b]pyridin-5-yl)cyclopropanecarboxamide]", "Kd": "< 0.1"}
{"compound": "Cc1nc2c(Nc3ccc(C4CCOC4)cc3S(C)(=O)=O)cc(NC(=O)C3CC3)nc2[nH]1", "note": "(stereo not shown) [I-388, N-(2-methyl-7-((2-(methylsulfonyl)-4-(tetrahydrofuran-3-yl)phenyl)amino)-3H-imidazo[4,5-b]pyridin-5-yl)cyclopropanecarboxamide]", "Kd": "0.1 to 0.5"}
{"compound": "CS(=O)(=O)c1cc(C2CCOC2)ccc1Nc1cc(NC(=O)C2CC2)nc2[nH]c(C(F)F)nc12", "note": "(stereo not shown) [I-389, N-(2-(difluoromethyl)-7-((2-(methylsulfonyl)-4-(tetrahydrofuran-3-yl)phenyl)amino)-3H-imidazo[4,5-b]pyridin-5-yl)cyclopropanecarboxamide]", "Kd": "0.5 to 1"}
{"compound": "Cc1nc2c(Nc3ccc(C4CCCOC4)cc3S(C)(=O)=O)cc(NC(=O)C3CC3)nc2[nH]1", "note": "(stereo not shown) [I-390, N-(2-methyl-7-((2-(methylsulfonyl)-4-(tetrahydro-2H-pyran-3-yl)phenyl)amino)-3H-imidazo[4,5-b]pyridin-5-yl)cyclopropanecarboxamide]", "Kd": "0.1 to 0.5"}
{"compound": "CS(=O)(=O)c1cc(C2CCCOC2)ccc1Nc1cc(NC(=O)C2CC2)nc2[nH]c(C(F)F)nc12", "note": "(stereo not shown) [I-391, N-(2-(difluoromethyl)-7-((2-(methylsulfonyl)-4-(tetrahydro-2H-pyran-3-yl)phenyl)amino)-3H-imidazo[4,5-b]pyridin-5-yl)cyclopropanecarboxamide]", "Kd": "0.1 to 0.5"}
{"compound": "CS(=O)(=O)c1ccccc1Nc1cc(Nc2cc3c(nn2)CCC3)nc2[nH]c(C(F)F)nc12", "note": "[I-392]", "Kd": "< 0.1"}
{"compound": "COCCCc1csc(-c2ccc(Nc3cc(NC(=O)C4CC4)nc4[nH]c(C(F)F)nc34)c(S(C)(=O)=O)c2)n1", "note": "[I-393]", "Kd": "0.5 to 1"}
{"compound": "Cc1nc2c(Nc3ccc(-c4cnn(C)c4C)cc3S(C)(=O)=O)cc(Nc3ccc(C(C)C)c(C#N)n3)nc2[nH]1", "note": "[I-394]", "Kd": "0.1 to 0.5"}
{"compound": "CN=[S@](C)(=O)c1ccccc1Nc1cc(NC(=O)C2CC2)nc2[nH]c(C(F)F)nc12", "note": "[I-395]", "Kd": "0.1 to 0.5"}
{"compound": "CN=[S@@](C)(=O)c1ccccc1Nc1cc(NC(=O)C2CC2)nc2[nH]c(C(F)F)nc12", "note": "[I-396]", "Kd": "1 to 10"}
{"compound": "Cc1ncc(Nc2cc(Nc3ccc(C4CCCCO4)cc3S(C)(=O)=O)c3nc(C(F)F)[nH]c3n2)nc1C", "note": "(stereo not shown) [I-397, 2-(difluoromethyl)-N5-(5,6-dimethylpyrazin-2-yl)-N7-(2-(methylsulfonyl)-4-(tetrahydro-2H-pyran-2-yl)phenyl)-3H-imidazo[4,5-b]pyridine-5,7-diamine]", "Kd": "0.1 to 0.5"}
{"compound": "Cc1nc2c(Nc3ccc(C4CCCCO4)cc3S(C)(=O)=O)cc(Nc3cnc(C)c(C)n3)nc2[nH]1", "note": "(stereo not shown) [I-398, N5-(5,6-dimethylpyrazin-2-yl)-2-methyl-N7-(2-(methylsulfonyl)-4-(tetrahydro-2H-pyran-2-yl)phenyl)-3H-imidazo[4,5-b]pyridine-5,7-diamine]", "Kd": "< 0.1"}
{"compound": "CC1(C)CC(c2ccc(Nc3cc(NC(=O)C4CC4)nc4[nH]c(C(F)F)nc34)c(S(C)(=O)=O)c2)CC(C)(C)O1", "note": "[I-399]", "Kd": "> 10"}
{"compound": "COC(C)c1ccc(Nc2cc(NC(=O)C3CC3)nc3[nH]c(C)nc23)c(S(C)(=O)=O)c1", "note": "(stereo not shown) [I-400, N-(7-((4-(1-methoxyethyl)-2-(methylsulfonyl)phenyl)amino)-2-methyl-3H-imidazo[4,5-b]pyridin-5-yl)cyclopropanecarboxamide]", "Kd": "0.1 to 0.5"}
{"compound": "CS(=O)(=O)c1cc(C2CCCCO2)ccc1Nc1cc(NC(=O)C2CC2)nc2[nH]c(C(F)F)nc12", "note": "(stereo not shown) [I-401, N-(2-(difluoromethyl)-7-((2-(methylsulfonyl)-4-(tetrahydro-2H-pyran-2-yl)phenyl)amino)-3H-imidazo[4,5-b]pyridin-5-yl)cyclopropanecarboxamide]", "Kd": "< 0.1"}
{"compound": "COC(C)c1ccc(Nc2cc(NC(=O)C3CC3)nc3[nH]c(C(F)F)nc23)c(S(C)(=O)=O)c1", "note": "(stereo not shown) [I-402, N-(2-(difluoromethyl)-7-((4-(1-methoxyethyl)-2-(methylsulfonyl)phenyl)amino)-3H-imidazo[4,5-b]pyridin-5-yl)cyclopropanecarboxamide]", "Kd": "0.5 to 1"}
{"compound": "COc1c(Nc2cc(Nc3ccc(NCCCCl)c(C#N)n3)nc3[nH]c(C)nc23)cccc1-c1nnn(C)n1", "note": "[I-403, 3-((3-chloropropyl)amino)-6-((7-((2-methoxy-3-(2-methyl-2H-tetrazol-5-yl)phenyl)amino)-2-methyl-3H-imidazo[4,5-b]pyridin-5-yl)amino)picolinonitrile]", "Kd": "0.5 to 1"}
{"compound": "Cn1cncc1-c1ccc(Nc2cc(NC(=O)[C@H]3C[C@H]3F)nc3[nH]c(C(F)F)nc23)c(S(C)(=O)=O)c1", "note": "[I-405, (1R,2R)—N-(2-(difluoromethyl)-7-((4-(1-methyl-1H-imidazol-5-yl)-2-(methylsulfonyl)phenyl)amino)-3H-imidazo[4,5-b]pyridin-5-yl)-2-fluorocyclopropane-1-carboxamide]", "Kd": "0.1 to 0.5"}
{"compound": "Cc1cn(C)nc1-c1ccc(Nc2cc(NC(=O)[C@@H]3C[C@@H]3F)nc3[nH]c(C(F)F)nc23)c(S(C)(=O)=O)c1", "note": "[I-406, (1 S,2S)—N-(2-(difluoromethyl)-7-((4-(1,4-dimethyl-1H-pyrazol-3-yl)-2-(methylsulfonyl)phenyl)amino)-3H-imidazo[4,5-b]pyridin-5-yl)-2-fluorocyclopropane-1-carboxamide]", "Kd": "< 0.1"}
{"compound": "Cc1cn(C)nc1-c1ccc(Nc2cc(NC(=O)[C@H]3C[C@H]3F)nc3[nH]c(C(F)F)nc23)c(S(C)(=O)=O)c1", "note": "[I-407, (1R,2R)—N-(2-(difluoromethyl)-7-((4-(1,4-dimethyl-1H-pyrazol-3-yl)-2-(methylsulfonyl)phenyl)amino)-3H-imidazo[4,5-b]pyridin-5-yl)-2-fluorocyclopropane-1-carboxamide]", "Kd": "0.1 to 0.5"}
{"compound": "CP(C)(=O)c1cc(C2CCOCC2)ccc1Nc1cc(NC(=O)C2CC2)nc2[nH]c(C(F)F)nc12", "note": "[I-408, N-(2-(difluoromethyl)-7-((2-(dimethylphosphoryl)-4-(tetrahydro-2H-pyran-4-yl)phenyl)amino)-3H-imidazo[4,5-b]pyridin-5-yl)cyclopropanecarboxamide]", "Kd": "0.5 to 1"}
